Legend:
ACCX9 primary cultures = test: Microscope images of ACCX9 primary cultures; format: cell-based, human; conditions: 10 μM, 7 days
Source text: FIGS. 3G, 3H and 3I are microscope images of ACCX9 primary cultures treated with DMSO, BMS493 and AGN193109, respectively. […] With reference to FIGS. 3E-3F, combination treatments may be used, based on the use of inverse agonists of RAR/RXR signaling (e.g., BMS493 or AGN193109) as radio-sensitizers and/or chemo-sensitizers (i.e., agents able to increase the cytotoxic activity of radiotherapy and/or chemotherapy).

[1] = test system: CD49f^low, KIT^+ (ductal-like) and CD49f^high, KIT^neg (myoepithelial-like) cells of human ACCs; test: Flow cytometry of short-term primary cultures from ACC PDX lines: relative content of ductal-like and myoepithelial-like cells; format: cell-based; conditions: for significance of reduction in percentage of CD49f^low, KIT^+ (ductal-like) cells: at both 1 μM and 10 μM, ACCX5M1 and SGTX6, vs NT or DMSO; for percentage of myoepithelial-like cells (CD49f^high, KIT^neg): ACCX5M1, direct agonists, vs DMSO
Source text: From a histological point of view, ACCs are usually characterized by a “bi-phasic differentiation” (i.e., the malignant tissues contain two distinct cell populations, which are commonly referred to as “myoepithelial-like” and “ductal-like” cells). A combination of cell surface markers (CD49f, KIT) have been discovered which enable the differential purification and accurate quantification of the two populations using fluorescence activated cell sorting (FACS). It has further been discovered that myoepithelial-like (CD49f^high, KIT^neg) cells are associated with more aggressive biological properties as compared to ductal-like (CD49f^low, KIT^+) cells when tested for their tumorigenic capacity (i.e., their capacity to sustain the formation of a new tumor upon xeno-transplantation in immuno-deficient mice).
FIGS. 1A-1F and 2A-2D illustrate the in vitro anti-tumor activity of BMS493 against human ACCs. FIGS. 1A and 1B show the results of a short-term primary culture from a patient-derived xenograft (PDX) line representative of human ACCs with “cribriform” histology (ACCX5M1) treated in vitro with BMS493 (10 μM) for 7 days and then analyzed by flow cytometry. FIGS. 1C and 1D show the results of a short-term primary culture from a patient-derived xenograft (PDX) line representative of human ACCs with “cribriform” histology (SGTX6) treated in vitro with BMS493 (10 μM) for 7 days and then analyzed by flow cytometry. FIGS. 1E and 1F show the results of a short-term primary culture from a patient-derived xenograft (PDX) line representative of human ACCs with “cribriform” histology (ACCX6) treated in vitro with BMS493 (10 μM) for 7 days and then analyzed by flow cytometry.
FIGS. 3A-3I illustrate the in vitro anti-tumor activity of BMS493 and AGN193109 against human ACCs. FIGS. 3A and 3B show comparison plots of short-term primary cultures from two patient-derived xenograft (PDX) lines representative of human ACCs with “cribriform” histology (SGTX6 and ACCX5M1, respectively), which were treated in vitro for 7 days with either BMS493 or AGN193109 and then analyzed by flow cytometry.

[2] = test system: ACCX5M1 organoid cultures, ductal-like (CD49f^low, KIT^+) cells; test: Organoid cultures of ACCX5M1 PDX line treated one week: inverse agonists versus neutral antagonist, flow cytometry; format: cell-based, human; conditions: for killing of ductal-like (CD49f^low, KIT^+) cells: ACCs cultured in vitro as three-dimensional (3D) organoids
Procedure: Further, as shown in FIGS. 6A-10, the efficacies of the inverse agonists BMS493 and AGN193109 were compared against a neutral antagonist (BMS195614). For FIGS. 6A-8, organoid cultures from a patient derived xenograft line (ACCX5M1) were treated for one week with DMSO (as a control), the neutral antagonist (BMS195614, 1 μM, 10 μM) or the inverse agonists (BMS493 1 μM, BMS493 10 μM, AGN193109 10 μM). The graphs display the percentage of KIT+ cells in each culture condition. FIG. 6A is a scatter plot displaying the relative content of myoepithelial-like cells and ductal-like cells in a primary in vitro organoid culture of the ACCX5M1 patient-derived xenograft (PDX) line treated with DMSO for 7 days and analyzed by flow cytometry. FIG. 6B is a scatter plot displaying the relative content of myoepithelial-like cells and ductal-like cells in a primary in vitro organoid culture of the ACCX5M1 patient-derived xenograft (PDX) line treated with the neutral antagonist BMS195614 (1 μM) for 7 days and analyzed by flow cytometry. FIG. 6C is a scatter plot displaying the relative content of myoepithelial-like cells and ductal-like cells in a primary in vitro organoid culture of the ACCX5M1 patient-derived xenograft (PDX) line treated with the neutral antagonist BMS195614 (10 μM) for 7 days and analyzed by flow cytometry.
FIG. 7A is a scatter plot displaying the relative content of myoepithelial-like cells and ductal-like cells in a primary in vitro organoid culture of the ACCX5M1 patient-derived xenograft (PDX) line treated with the inverse agonist BMS493 (1 μM) after one week. FIG. 7B is a scatter plot displaying the relative content of myoepithelial-like cells and ductal-like cells in a primary in vitro organoid culture of the ACCX5M1 patient-derived xenograft (PDX) line treated with the inverse agonist BMS493 (10 μM) for 7 days and analyzed by flow cytometry. FIG. 7C is a scatter plot displaying the relative content of myoepithelial-like cells and ductal-like cells in a primary in vitro organoid culture of the ACCX5M1 patient-derived xenograft (PDX) line treated with the inverse agonist AGN193109 (10 μM) for 7 days and analyzed by flow cytometry. FIG. 8 is a bar graph comparing the percentage of ductal-like (CD49f^low, KIT^+) cells after one week from each of the treatments of FIGS. 6A-7C. FIG. 9 is a bar graph comparing the percentage of ductal-like (CD49f^low, KIT^+) cells after one week from the treatments of FIGS. 6A, 6C, 7B and 7C. FIG. 10 is a bar graph comparing the percentage of EpCAM^+/DAPI^+ cells (i.e., dead epithelial cells) after one week from each of the treatments of FIGS. 6A-7C. […] It should be noted that in FIGS. 8-10, BMS195614 has been abbreviated as “BMS195” due to the available space in the Figures.

[3] = test system: human ACC primary cultures (ACCX5M1, ACCX9); test: Cell viability / cytotoxic activity in primary cultures of ACC PDX lines; format: cell-based; conditions: for cell viability: ACCX5M1, vs DMSO control cultures, FIG. 3E; for cytotoxic activity: ACCX9 (solid histology), FIG. 3F
Source text: With reference to FIGS. 3E-3F, combination treatments may be used, based on the use of inverse agonists of RAR/RXR signaling (e.g., BMS493 or AGN193109) as radio-sensitizers and/or chemo-sensitizers (i.e., agents able to increase the cytotoxic activity of radiotherapy and/or chemotherapy).

[4] = test system: CD49f^low, KIT^+ (ductal-like) and CD49f^high, KIT^neg (myoepithelial-like) cells of human ACCs; test: Flow cytometry of short-term primary cultures from ACC PDX lines: relative content of ductal-like and myoepithelial-like cells; format: cell-based; conditions: 10 μM, 7 days; ACCX5M1; direct agonists; vs DMSO
[5] = test system: myoepithelial-like cells (CD49f^high, KIT^neg) isolated by FACS from solid tumors; test: Sorted myoepithelial-like cells (FACS) stimulated in vitro with direct RAR agonist; format: cell-based, human; conditions: ATRA 10 μM (also printed 10 mM), 7 days
[6] = test system: human ACCs engrafted in mice (ACCX5M1, SGTX6, ACCX9); test: In vivo growth kinetics of ACC PDX lines engrafted subcutaneously in NSG immune-deficient mice
Procedure: Three independent patient-derived xenograft (PDX) lines representative of human ACCs (ACCX5M1, SGTX6, ACCX9) were engrafted in the subcutaneous (s.c.) tissue of NOD/SCID/IL2Rγ^−/− (NS G) immune-deficient mice and left growing until they reached a size of approximately 700 mm^3. Tumor-bearing mice were then divided into two cohorts, one of which was treated with BMS493 (40 mg/kg X 3-4 days/week), while the other received only DMSO (i.e., the solvent used as a vehicle to resuspend BMS493).

[7] = test system: human ACC tumor cells (PDX lines SGTX6, ACCX6, ACCX9, ACCX11); test: Percentage of dead tumor cells (EpCAM^+/DAPI^+) in primary cultures of ACC PDX lines by flow cytometry; format: cell-based
Source text: It should be noted that in FIGS. 2A and 2B, the percentage of dead tumor cells is reported as a percentage of the human epithelial cells that incorporate DAPI (i.e. EpCAM^+/DAPI^+) and excludes any contaminant of mouse cells from the primary tissues that were used to generate the cultures (i.e. excludes cells expressing H-2K^d and/or mCd45).
It should be noted that in FIGS. 2C and 2D, the percentage of dead tumor cells is reported as a percentage of the human epithelial cells that incorporate DAPI (i.e. EpCAM^+/DAPI^+) and excludes any contaminant of mouse cells from the primary tissues that were used to generate the cultures (i.e. excludes cells expressing H-2K^d and/or mCd45).

[8] = 7 days, SGTX6 and ACCX5M1, FIGS. 3A, 3B
[9] = 10 μM, 7 days, ACCX5M1, SGTX6, ACCX6 (cribriform), vs untreated
[10] = ACCX5M1 organoids, one week, FIG. 8

| Compound | cell morphology in microscope images (ACCX9 primary cultures) | percentage of CD49f^low, KIT^+ (ductal-like) cells [1, 8] | significance of reduction in percentage of CD49f^low, KIT^+ (ductal-like) cells [1] | killing of ductal-like (CD49f^low, KIT^+) cells [2] | cell viability [3] | cytotoxic activity [3] | percentage of ductal-like cells (CD49f^low, KIT^+) [4] | percentage of myoepithelial-like cells (CD49f^high, KIT^neg) ([1]; 10 μM, 7 days) | further results |
| --- | --- | --- | --- | --- | --- | --- | --- | --- | --- |
| Cc1ccc(C2=CCC(C)(C)c3ccc(C#Cc4ccc(C(=O)O)cc4)cc32)cc1 [AGN193109, 4-[2-[5,6-Dihydro-5,5-dimethyl-8-(4-methylphenyl)-2-naphthalenyl]ethynyl]benzoic acid] | widespread cell fragmentation | dramatic reduction | statistically significant | able to selectively kill | reduction in cell viability | clear cytotoxic activity |  |  |  |
| CC1=C(/C=C/C(C)=C/C=C/C(C)=C/C(=O)O)C(C)(C)CCC1 [ATRA, all-trans retinoic acid] |  |  |  |  |  |  | increase | reduction | differentiation of sorted myoepithelial-like cells into ductal-like cells [5]: differentiation of myoepithelial-like cells |
| CC1(C)CC=C(C#Cc2ccccc2)c2cc(/C=C/c3ccc(C(=O)O)cc3)ccc21 [BMS493, 4-[(1E)-2-[5,6-Dihydro-5,5-dimethyl-8-(2-phenylethynyl)-2-naphthalenyl]ethenyl]benzoic acid] | widespread cell fragmentation | dramatic reduction | statistically significant | able to selectively kill | reduction in cell viability | clear cytotoxic activity |  |  | tumor growth (change in tumor volume over time) ([6]; 40 mg/kg X 3-4 days/week, ACCX5M1, SGTX6, ACCX9 s.c. in NSG mice, vs DMSO): either growth arrest or tumor shrinkage; activity against human ACCs engrafted in mice ([6]; dosing regimens from 10 mg/kg (once daily X 21 days) up to 40 mg/kg (4 times/week X 3 weeks)): active; percentage of CD49f^high, KIT^neg (myoepithelial-like) cells [1, 9]: corresponding relative increase; percentage of CD49f^low, KIT^+ (ductal-like) cells [1, 9]: dramatic reduction; percentage of dead cells (EpCAM^+/DAPI^+) ([2]; ACCX5M1 organoids, one week, BMS493 10 μM, BMS195614 1 μM, 10 μM, FIG. 10): significant increase; percentage of dead (DAPI^+) cells ([7]; ACCX9 and ACCX11 (solid histology)): substantial increase; percentage of dead tumor cells (EpCAM^+/DAPI^+) ([7]; SGTX6 and ACCX6 (cribriform), vs NT, DMSO or ATRA): substantial increase |
| CC1(C)CC=C(c2cnc3ccccc3c2)c2cc(C(=O)Nc3ccc(C(=O)O)cc3)ccc21 [BMS195614] |  |  |  |  |  |  |  |  | change in percentage of ductal-like (CD49f^low, KIT^+) cells on raising concentration from 1 μM to 10 μM [2, 10]: does not translate in a significant decrease; percentage of ductal-like (CD49f^low, KIT^+) cells relative to BMS493 and AGN193109 [2, 10]: remains statistically superior; anti-tumor effect relative to inverse agonists BMS493 and AGN193109 ([2]; at both doses, 1 μM and 10 μM): clearly systematically inferior |
| C=C(c1ccc(C(=O)O)cc1)c1cc2c(cc1C)C(C)(C)CCC2(C)C [bexarotene] |  |  |  |  |  |  | increase | reduction |  |

Source: US12115140B2, “Method of treating adenoid cystic carcinoma” (THE TRUSTEES OF COLUMBIA UNIVERSITY IN THE CITY OF NEW YORK, priority 2020, dated 2024)
